# Test results taken from publication PMC6270616, “Antidiabetic and Antioxidant Properties of Alkaloids from Catharanthus roseus (L.) G. Don” (Molecules, 2013).
# Molecular target: T1, protein tyrosine phosphatase-1B (PTP-1B) (Homo sapiens, UniProt P18031)
# T1 construct: gene PTPN1; recombinant PTP-1B
# T1 sequence (P18031 1-435): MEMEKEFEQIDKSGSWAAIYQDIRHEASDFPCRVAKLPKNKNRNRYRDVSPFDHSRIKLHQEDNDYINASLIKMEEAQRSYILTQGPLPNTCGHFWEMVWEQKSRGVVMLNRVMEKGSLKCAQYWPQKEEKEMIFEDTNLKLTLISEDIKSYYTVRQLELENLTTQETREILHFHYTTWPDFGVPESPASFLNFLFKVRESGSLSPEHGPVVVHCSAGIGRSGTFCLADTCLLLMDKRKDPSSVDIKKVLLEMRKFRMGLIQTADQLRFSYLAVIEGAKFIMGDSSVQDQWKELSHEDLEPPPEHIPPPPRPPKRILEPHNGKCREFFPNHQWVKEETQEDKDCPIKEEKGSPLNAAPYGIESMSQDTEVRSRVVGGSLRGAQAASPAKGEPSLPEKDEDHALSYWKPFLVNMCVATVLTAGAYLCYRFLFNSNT
# Assay: pNPP phosphatase assay with recombinant enzyme, absorbance at […] nm
# Format: biochemical
smiles,measurement,value
"COC(=O)[C@@H]1C[C@@]23C=CCN4CC[C@@]5(c6ccccc6N[C@]15[C@@H]2C)[C@@H]43 [IV, vindolinine]","pNPP phosphatase assay with recombinant enzyme, absorbance at 405 nm",compounds II–IV demonstrated good protein tyrosine phosphatase-1B (PTP-1B) inhibition activity
